Experimental data reported in ChEMBL document CHEMBL1909046, “DrugMatrix in vitro pharmacology data”.

Key:
[1] = target: 5-hydroxytryptamine receptor 2B (Homo sapiens, UniProt P41595); format: cell membranes, CHO-K1, Membrane; further: in other assays of this panel Not Active means under 50% inhibition at 10 µM
[2] = target: Cytochrome P450 2C19 (Homo sapiens, UniProt P33261); further: in other assays of this panel Not Active means under 50% inhibition at 10 µM
[3] = target: Sodium-dependent noradrenaline transporter (Homo sapiens, UniProt P23975); assay: DRUGMATRIX: Norepinephrine Transporter radioligand binding (ligand: [125I] RTI-55); format: cell membranes, MDCK, Membrane; conditions: Not Active = under 50% inhibition at 10 µM
Chain of Sodium-dependent noradrenaline transporter (P23975 whole entry): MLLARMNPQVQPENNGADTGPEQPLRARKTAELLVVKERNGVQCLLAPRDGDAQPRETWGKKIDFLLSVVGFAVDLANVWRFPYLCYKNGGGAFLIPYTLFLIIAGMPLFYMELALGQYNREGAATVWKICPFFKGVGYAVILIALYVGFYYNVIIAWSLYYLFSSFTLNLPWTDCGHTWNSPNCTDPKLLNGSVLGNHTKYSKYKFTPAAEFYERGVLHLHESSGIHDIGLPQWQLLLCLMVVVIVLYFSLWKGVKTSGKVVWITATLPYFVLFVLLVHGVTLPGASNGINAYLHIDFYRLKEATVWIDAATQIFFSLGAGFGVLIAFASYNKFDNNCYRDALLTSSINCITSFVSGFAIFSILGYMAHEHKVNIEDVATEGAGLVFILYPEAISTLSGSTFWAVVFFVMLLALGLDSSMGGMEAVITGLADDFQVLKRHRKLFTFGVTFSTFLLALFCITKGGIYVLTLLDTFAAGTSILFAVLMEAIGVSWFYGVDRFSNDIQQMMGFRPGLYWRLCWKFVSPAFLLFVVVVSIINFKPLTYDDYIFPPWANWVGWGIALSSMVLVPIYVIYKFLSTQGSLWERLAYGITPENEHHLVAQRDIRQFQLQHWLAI

[4] = target: Cytochrome P450 2E1 (Homo sapiens, UniProt P05181); conditions: bti-tn-5b1-4; further: in other assays of this panel Not Active means under 50% inhibition at 10 µM
Chain of Cytochrome P450 2E1 (P05181 whole entry): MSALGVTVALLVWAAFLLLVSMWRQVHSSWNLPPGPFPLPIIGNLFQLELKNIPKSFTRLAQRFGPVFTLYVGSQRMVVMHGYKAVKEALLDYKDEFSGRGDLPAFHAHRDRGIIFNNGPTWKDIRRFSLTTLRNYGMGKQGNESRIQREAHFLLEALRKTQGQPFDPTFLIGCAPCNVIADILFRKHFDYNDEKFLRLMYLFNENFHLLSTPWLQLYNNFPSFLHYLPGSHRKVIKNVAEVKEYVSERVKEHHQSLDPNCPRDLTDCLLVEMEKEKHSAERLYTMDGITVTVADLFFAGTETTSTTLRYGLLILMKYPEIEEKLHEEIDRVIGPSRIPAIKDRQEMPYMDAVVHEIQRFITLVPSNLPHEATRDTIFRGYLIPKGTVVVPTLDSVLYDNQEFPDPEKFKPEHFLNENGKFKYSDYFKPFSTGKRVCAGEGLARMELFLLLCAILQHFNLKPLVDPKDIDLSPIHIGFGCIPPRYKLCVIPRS

[5] = target: T1, Cytochrome P450 1A2 (Homo sapiens, UniProt P05177); conditions: bti-tn-5b1-4; further: in other assays of this panel Not Active means under 50% inhibition at 10 µM
T1 sequence (P05177 whole entry): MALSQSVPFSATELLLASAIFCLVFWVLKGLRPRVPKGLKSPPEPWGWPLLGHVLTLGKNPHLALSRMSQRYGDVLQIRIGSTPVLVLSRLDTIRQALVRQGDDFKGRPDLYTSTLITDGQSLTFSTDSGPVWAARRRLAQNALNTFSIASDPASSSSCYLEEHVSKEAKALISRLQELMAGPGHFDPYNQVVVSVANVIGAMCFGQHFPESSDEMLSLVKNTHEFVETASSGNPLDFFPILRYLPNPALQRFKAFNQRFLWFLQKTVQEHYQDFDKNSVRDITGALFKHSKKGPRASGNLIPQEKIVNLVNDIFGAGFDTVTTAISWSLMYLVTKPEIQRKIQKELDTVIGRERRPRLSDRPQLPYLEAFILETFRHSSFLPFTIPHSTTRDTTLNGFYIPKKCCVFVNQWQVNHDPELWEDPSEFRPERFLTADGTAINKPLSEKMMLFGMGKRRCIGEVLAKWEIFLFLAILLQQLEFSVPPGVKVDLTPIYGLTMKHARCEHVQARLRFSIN

[6] = target: Voltage-gated inwardly rectifying potassium channel KCNH2 (Homo sapiens, UniProt Q12809); conditions: hek293; further: in other assays of this panel Not Active means under 50% inhibition at 10 µM
Chain of Voltage-gated inwardly rectifying potassium channel KCNH2 (Q12809 whole entry): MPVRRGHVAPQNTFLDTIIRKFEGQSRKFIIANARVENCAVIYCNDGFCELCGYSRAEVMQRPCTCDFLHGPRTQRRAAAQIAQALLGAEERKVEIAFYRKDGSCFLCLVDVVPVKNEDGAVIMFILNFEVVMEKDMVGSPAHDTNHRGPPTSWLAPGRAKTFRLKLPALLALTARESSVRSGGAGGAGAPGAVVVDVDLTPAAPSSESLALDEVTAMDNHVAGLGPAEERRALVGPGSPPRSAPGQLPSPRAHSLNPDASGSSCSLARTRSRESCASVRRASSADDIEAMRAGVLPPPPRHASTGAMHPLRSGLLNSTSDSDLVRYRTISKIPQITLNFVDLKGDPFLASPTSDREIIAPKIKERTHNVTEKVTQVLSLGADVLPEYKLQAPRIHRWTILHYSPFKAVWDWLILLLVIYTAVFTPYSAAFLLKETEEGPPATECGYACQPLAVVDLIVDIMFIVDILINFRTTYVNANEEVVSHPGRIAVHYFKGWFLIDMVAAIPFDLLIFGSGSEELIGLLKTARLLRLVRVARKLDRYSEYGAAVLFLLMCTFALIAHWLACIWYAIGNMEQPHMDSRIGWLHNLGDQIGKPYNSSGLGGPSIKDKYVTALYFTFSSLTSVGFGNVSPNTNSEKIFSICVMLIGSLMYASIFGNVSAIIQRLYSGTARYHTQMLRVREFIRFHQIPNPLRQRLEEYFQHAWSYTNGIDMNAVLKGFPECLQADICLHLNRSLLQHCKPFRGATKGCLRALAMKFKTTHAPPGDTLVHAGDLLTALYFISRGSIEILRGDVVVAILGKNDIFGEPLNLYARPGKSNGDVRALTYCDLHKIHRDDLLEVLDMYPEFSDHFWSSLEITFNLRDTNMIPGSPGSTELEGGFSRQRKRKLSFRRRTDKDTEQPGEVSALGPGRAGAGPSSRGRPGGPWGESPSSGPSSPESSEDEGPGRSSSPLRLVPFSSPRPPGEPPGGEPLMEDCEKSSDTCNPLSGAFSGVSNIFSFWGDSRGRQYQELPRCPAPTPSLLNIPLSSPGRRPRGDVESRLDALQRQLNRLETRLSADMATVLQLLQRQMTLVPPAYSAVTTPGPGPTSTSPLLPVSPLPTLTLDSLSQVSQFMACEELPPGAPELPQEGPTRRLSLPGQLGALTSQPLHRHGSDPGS

[7] = target: T2, Androgen receptor (Rattus norvegicus, UniProt P15207); further: in other assays of this panel Not Active means under 50% inhibition at 10 µM
T2 sequence (P15207 whole entry): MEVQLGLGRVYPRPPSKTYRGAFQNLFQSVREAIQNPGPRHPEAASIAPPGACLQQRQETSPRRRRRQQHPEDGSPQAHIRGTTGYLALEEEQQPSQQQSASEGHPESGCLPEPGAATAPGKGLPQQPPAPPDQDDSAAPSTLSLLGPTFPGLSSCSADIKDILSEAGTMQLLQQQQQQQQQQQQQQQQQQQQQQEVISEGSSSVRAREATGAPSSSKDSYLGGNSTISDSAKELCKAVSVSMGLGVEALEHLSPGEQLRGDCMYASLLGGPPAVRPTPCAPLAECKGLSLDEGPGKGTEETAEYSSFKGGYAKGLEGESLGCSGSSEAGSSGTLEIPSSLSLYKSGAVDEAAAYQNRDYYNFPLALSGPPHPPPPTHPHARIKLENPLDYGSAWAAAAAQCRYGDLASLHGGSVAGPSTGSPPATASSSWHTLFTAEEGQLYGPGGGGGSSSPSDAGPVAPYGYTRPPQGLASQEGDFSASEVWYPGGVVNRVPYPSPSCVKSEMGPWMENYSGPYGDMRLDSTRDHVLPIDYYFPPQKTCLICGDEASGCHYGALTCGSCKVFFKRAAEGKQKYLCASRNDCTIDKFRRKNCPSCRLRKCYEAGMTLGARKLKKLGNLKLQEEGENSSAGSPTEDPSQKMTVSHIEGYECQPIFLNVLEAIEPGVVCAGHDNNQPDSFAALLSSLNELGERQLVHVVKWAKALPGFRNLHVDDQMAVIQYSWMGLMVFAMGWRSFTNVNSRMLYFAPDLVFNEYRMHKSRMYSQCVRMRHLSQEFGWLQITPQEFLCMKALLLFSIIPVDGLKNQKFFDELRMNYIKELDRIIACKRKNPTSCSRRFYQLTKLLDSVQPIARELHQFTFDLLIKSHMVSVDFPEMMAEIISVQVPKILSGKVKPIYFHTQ

[8] = target: Cytochrome P450 2C9 (Homo sapiens, UniProt P11712); further: in other assays of this panel Not Active means under 50% inhibition at 10 µM
Chain of Cytochrome P450 2C9 (P11712 whole entry): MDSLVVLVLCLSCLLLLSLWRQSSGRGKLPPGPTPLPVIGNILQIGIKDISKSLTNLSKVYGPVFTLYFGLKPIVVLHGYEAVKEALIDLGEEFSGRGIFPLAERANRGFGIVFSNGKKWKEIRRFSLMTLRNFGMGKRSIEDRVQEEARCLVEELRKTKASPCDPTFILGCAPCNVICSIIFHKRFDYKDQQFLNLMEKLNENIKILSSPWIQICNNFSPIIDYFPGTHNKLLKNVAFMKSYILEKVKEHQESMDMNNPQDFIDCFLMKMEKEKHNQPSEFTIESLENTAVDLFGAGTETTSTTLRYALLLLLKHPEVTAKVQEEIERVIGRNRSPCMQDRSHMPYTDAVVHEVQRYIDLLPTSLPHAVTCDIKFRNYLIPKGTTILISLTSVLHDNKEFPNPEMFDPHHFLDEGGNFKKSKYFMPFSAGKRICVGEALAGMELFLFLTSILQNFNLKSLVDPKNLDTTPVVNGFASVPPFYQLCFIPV

[9] = target: T1, Cytochrome P450 1A2
[10] = target: Cytochrome P450 2D6 (Homo sapiens, UniProt P10635); further: in other assays of this panel Not Active means under 50% inhibition at 10 µM
Chain of Cytochrome P450 2D6 (P10635 whole entry): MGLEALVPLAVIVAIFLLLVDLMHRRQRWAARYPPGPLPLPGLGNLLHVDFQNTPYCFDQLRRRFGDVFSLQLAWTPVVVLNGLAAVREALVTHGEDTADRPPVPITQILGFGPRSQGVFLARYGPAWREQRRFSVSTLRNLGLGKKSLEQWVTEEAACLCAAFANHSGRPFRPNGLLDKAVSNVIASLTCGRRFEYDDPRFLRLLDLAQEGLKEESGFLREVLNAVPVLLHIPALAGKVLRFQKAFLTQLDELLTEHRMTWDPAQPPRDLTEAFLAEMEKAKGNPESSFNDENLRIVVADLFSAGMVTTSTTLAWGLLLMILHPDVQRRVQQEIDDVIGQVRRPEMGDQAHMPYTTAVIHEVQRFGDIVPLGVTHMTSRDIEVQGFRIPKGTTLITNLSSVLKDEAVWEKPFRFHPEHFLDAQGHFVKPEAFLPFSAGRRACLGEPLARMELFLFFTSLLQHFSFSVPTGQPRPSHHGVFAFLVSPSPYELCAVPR

Chain of Cytochrome P450 2C19 (P33261 whole entry): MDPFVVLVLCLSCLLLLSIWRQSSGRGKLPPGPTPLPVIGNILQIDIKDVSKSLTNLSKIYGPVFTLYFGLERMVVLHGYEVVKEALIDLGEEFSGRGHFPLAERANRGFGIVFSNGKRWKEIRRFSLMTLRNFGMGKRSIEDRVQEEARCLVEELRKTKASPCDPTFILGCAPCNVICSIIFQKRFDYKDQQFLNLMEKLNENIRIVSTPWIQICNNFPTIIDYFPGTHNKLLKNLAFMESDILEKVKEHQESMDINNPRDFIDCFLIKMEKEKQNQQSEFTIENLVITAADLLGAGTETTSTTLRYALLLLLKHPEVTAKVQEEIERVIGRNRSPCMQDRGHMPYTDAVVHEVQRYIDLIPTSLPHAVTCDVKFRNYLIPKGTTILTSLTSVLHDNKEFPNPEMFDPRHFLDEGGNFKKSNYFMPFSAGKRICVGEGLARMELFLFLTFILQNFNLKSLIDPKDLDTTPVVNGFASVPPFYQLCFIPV
Chain of 5-hydroxytryptamine receptor 2B (P41595 whole entry): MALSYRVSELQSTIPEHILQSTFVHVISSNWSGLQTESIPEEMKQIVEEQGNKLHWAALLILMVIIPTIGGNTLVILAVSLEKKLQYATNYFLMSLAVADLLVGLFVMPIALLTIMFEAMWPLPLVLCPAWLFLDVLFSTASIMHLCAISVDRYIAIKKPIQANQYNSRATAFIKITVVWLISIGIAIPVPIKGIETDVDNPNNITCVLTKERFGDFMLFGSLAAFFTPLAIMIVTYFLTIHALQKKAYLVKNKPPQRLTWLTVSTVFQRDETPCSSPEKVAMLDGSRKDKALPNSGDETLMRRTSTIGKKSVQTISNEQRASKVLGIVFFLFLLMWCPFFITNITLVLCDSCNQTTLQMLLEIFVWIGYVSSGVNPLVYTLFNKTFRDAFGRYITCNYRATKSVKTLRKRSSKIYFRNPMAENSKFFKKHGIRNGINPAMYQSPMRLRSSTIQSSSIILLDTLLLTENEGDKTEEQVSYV

Molecule | IC50 ([1]; cho-k1) | IC50 [2] | IC50 ([3]; mdck) | IC50 [4] | Ki [4] | IC50 [5] | Ki [5] | IC50 [6] | Ki [6] | IC50 [7] | IC50 ([3]; read-out: IC50) | Ki ([3]; read-out: Ki) | IC50 ([1]; read-out: IC50) | Ki ([1]; read-out: Ki) | IC50 [8] | IC50 [9] | IC50 [10] | Ki ([1]; cho-k1) | Ki [7] | Ki ([3]; mdck)
C#C[C@]1(O)CC[C@H]2[C@@H]3[C@H](C)CC4=C(CCC(=O)C4)[C@H]3CC[C@@]21C [TIBOLONE] | Not Active | 3 µM | Not Active | Not Active | Not Active | Not Active | Not Active | Not Active | Not Active |  |  |  |  |  |  |  |  |  |  | 
Oc1ccc(/C=C/c2cc(O)cc(O)c2)cc1 [RESVERATROL] | Not Active |  |  | Not Active | Not Active |  |  | Not Active | Not Active | Not Active | 2.31 µM | 2.29 µM |  |  |  |  |  |  |  | 
CCOc1cc(N)c(Cl)cc1C(=O)NCC1CN(Cc2ccc(F)cc2)CCO1 (stereo unspecified) [MOSAPRIDE] |  | 1 µM | Not Active | Not Active | Not Active |  |  | Not Active | Not Active |  |  |  | 0.296 µM | 0.188 µM | 1 µM | 0.4 µM |  |  |  | 
CC[C@H](C)C(=O)O[C@H]1CCC=C2C=C[C@H](C)[C@H](CC[C@@H]3C[C@@H](O)CC(=O)O3)[C@H]21 [MEVASTATIN] | Not Active |  | Not Active | Not Active | Not Active | Not Active | Not Active |  |  | Not Active |  |  |  |  |  |  |  |  |  | 
CCN(CC)C(=S)SSC(=S)N(CC)CC |  |  |  | Not Active | Not Active |  |  | Not Active | Not Active | Not Active |  |  |  |  |  | 4 µM |  |  |  | 
O=[As][O-].[Na+] [SODIUM ARSENITE] | Not Active |  | Not Active | Not Active | Not Active | Not Active | Not Active | Not Active | Not Active | Not Active |  |  |  |  |  |  |  |  |  | 
Nc1nc(N)c2nc(-c3ccccc3)c(N)nc2n1 | Not Active |  | Not Active | Not Active | Not Active | Not Active | Not Active | Not Active | Not Active | Not Active |  |  |  |  |  |  | 10 µM |  |  | 
CCN(CC)CCNC(=O)c1cc(Cl)c(N)cc1OC [METOCLOPRAMIDE] |  |  | Not Active | Not Active | Not Active | Not Active | Not Active | Not Active | Not Active |  |  |  | 0.63 µM | 0.401 µM |  |  | 0.8 µM |  |  | 
Cc1nnc(NS(=O)(=O)c2ccc(N)cc2)s1 [SULFAMETHIZOLE] | Not Active |  | Not Active | Not Active | Not Active | Not Active | Not Active | Not Active | Not Active | Not Active |  |  |  |  |  |  |  |  |  | 
LEAD(IV) ACETATE | Not Active |  | Not Active | Not Active | Not Active | Not Active | Not Active | Not Active | Not Active | Not Active |  |  |  |  |  |  |  | Not Active | Not Active | Not Active
CC[C@H](C)[C@@H](CO[C@@H](Cc1ccccc1)C(=O)N[C@@H](CCS(C)(=O)=O)C(=O)OC(C)C)NC[C@@H](N)CS | Not Active |  | Not Active | Not Active | Not Active | Not Active | Not Active | Not Active | Not Active | Not Active |  |  |  |  |  |  | 0.7 µM |  |  | 
CCN1CCCC1CNC(=O)c1cc(S(N)(=O)=O)ccc1OC (stereo unspecified) [SULPIRIDE] | Not Active |  | Not Active | Not Active | Not Active | Not Active | Not Active | Not Active | Not Active | Not Active |  |  |  |  |  |  |  |  |  | 
CCOC(=O)C1=C(C)NC(C)=C(C(=O)OCC)C1c1ccccc1/C=C/C(=O)OC(C)(C)C [LACIDIPINE] | Not Active | 2 µM |  | Not Active | Not Active | Not Active | Not Active | Not Active | Not Active |  | 5.73 µM | 5.69 µM |  |  | 2 µM |  |  |  |  | 
C=CCc1ccc2c(c1)OCO2 [SAFROLE] | Not Active |  | Not Active | Not Active | Not Active |  |  | Not Active | Not Active |  |  |  |  |  |  | 10 µM |  |  |  | 
O=C(OC[C@H]1O[C@@H](OC(=O)c2cc(O)c(O)c(OC(=O)c3cc(O)c(O)c(O)c3)c2)[C@H](OC(=O)c2cc(O)c(O)c(OC(=O)c3cc(O)c(O)c(O)c3)c2)[C@@H](OC(=O)c2cc(O)c(O)c(OC(=O)c3cc(O)c(O)c(O)c3)c2)[C@@H]1OC(=O)c1cc(O)c(O)c(OC(=O)c2cc(O)c(O)c(O)c2)c1)c1cc(O)c(O)c(OC(=O)c2cc(O)c(O)c(O)c2)c1 [TANNIC ACID] | Not Active |  | Not Active | Not Active | Not Active |  |  | Not Active | Not Active |  |  |  |  |  | 4.61 µM | 0.919 µM |  |  |  | 
CN(C)CCC=C1c2ccccc2COc2ccccc21 [DOXEPIN] |  |  |  | Not Active | Not Active | Not Active | Not Active | Not Active | Not Active | Not Active |  |  |  |  |  |  |  |  |  | 
COC(=O)Nc1nc2ccc(C(=O)c3ccccc3)cc2[nH]1 [MEBENDAZOLE] | Not Active |  | Not Active | Not Active | Not Active | Not Active | Not Active | Not Active | Not Active | Not Active |  |  |  |  |  |  |  |  |  | 
